Read-outs that look alike come from different tables or passages of the source.
Legend:
serum iPTH = experiment: Study A: serum iPTH after single dose; format: in vivo, human; conditions: single i.v. dose 448 μg, first 96 hours
[1] = Study B: single-dose pharmacokinetics of 25-hydroxyvitamin D3 in healthy subjects; format: in vivo; conditions: human, serum, iv, 448 ug, single i.v. dose 448 μg in ethanol solution
[2] = system: serum total 1,25-dihydroxyvitamin D; experiment: Study A: serum total 1,25-dihydroxyvitamin D after single dose; format: in vivo, human; conditions: single i.v. dose 448 μg, by 6 hours post-dose
[3] = Study A: single-dose pharmacokinetics of serum 25-hydroxyvitamin D3 in subjects with stage 3 or 4 CKD; format: in vivo, human; conditions: for Tmax / Cmax / AUC(0-t) / AUC(0-inf) / half-life: human, serum, iv, 448 ug
[4] = baseline-adjusted 25-hydroxyvitamin D3, 448 μg iv single dose
[5] = observed 25-hydroxyvitamin D3, 448 μg iv single dose

C=C1CC[C@H](O)C/C1=C/C=C1\CCC[C@]2(C)[C@@H]([C@H](C)CCCC(C)(C)O)CC[C@@H]12 [25-hydroxyvitamin D3]
change in serum iPTH (serum iPTH): no meaningful change | Cmax [1]: 153 ng/mL | increase of mean serum total 1,25-dihydroxyvitamin D from pre-treatment baseline [2]: approximately 13 pg/mL | CL mean (SD) [3, 4]: 0.036 (0.014) L/ng * h | CL median [3, 4]: 0.037 L/ng/h | F mean [3, 4]: 1.000 (NA) | Vd mean (SD) [3, 4]: 32.94 (11.00) L/ng | Vd median [3, 4]: 29.70 L/ng | λ2 mean (SD) [3, 4]: 0.0011 (0.0005) h^−1 | λ2 median [3, 4]: 0.0010 h⁻¹ | Tmax ([3]; Study A, single i.v. dose 448 μg in ethanol solution, read-out: Tmax): 30 min | Cmax ([3]; approximate mean Cmax of 25-hydroxyvitamin D3, Study A, single i.v. dose 448 μg in ethanol solution): ~134 ng/mL | AUC(0-t) ([3]; baseline-adjusted 25-hydroxyvitamin D3, 448 μg iv single dose, read-out: AUC0-42 days mean): 19600 ng·h/mL | AUC(0-t) ([3]; baseline-adjusted 25-hydroxyvitamin D3, 448 μg iv single dose, read-out: AUC0-42 days median): 18800 ng·h/mL | AUC(0-inf) ([3]; baseline-adjusted 25-hydroxyvitamin D3, 448 μg iv single dose, read-out: AUC0-inf mean): 34500 ng·h/mL | AUC(0-inf) ([3]; baseline-adjusted 25-hydroxyvitamin D3, 448 μg iv single dose, read-out: AUC0-inf median): 27000 ng·h/mL | AUC(0-t) ([3]; baseline-adjusted 25-hydroxyvitamin D3, 448 μg iv single dose, read-out: AUC0-last mean): 19600 ng·h/mL | AUC(0-t) ([3]; baseline-adjusted 25-hydroxyvitamin D3, 448 μg iv single dose, read-out: AUC0-last median): 18800 ng·h/mL | Cmax ([3]; baseline-adjusted 25-hydroxyvitamin D3, 448 μg iv single dose, read-out: Cmax mean (SD)): 110 ng/mL | Cmax ([3]; baseline-adjusted 25-hydroxyvitamin D3, 448 μg iv single dose, read-out: Cmax median): 111 ng/mL | half-life ([3]; baseline-adjusted 25-hydroxyvitamin D3, 448 μg iv single dose, read-out: t1/2 mean (SD) (converted)): 31.1 days | half-life ([3]; baseline-adjusted 25-hydroxyvitamin D3, 448 μg iv single dose, read-out: t1/2 median (converted)): 27.6 days | Tmax ([3]; baseline-adjusted 25-hydroxyvitamin D3, 448 μg iv single dose, read-out: tmax mean (SD)): 29.4 min | Tmax ([3]; baseline-adjusted 25-hydroxyvitamin D3, 448 μg iv single dose, read-out: tmax median): 15 min | AUC(0-t) ([3]; observed 25-hydroxyvitamin D3, 448 μg iv single dose, read-out: AUC0-42 days mean): 43500 ng·h/mL | AUC(0-t) ([3]; observed 25-hydroxyvitamin D3, 448 μg iv single dose, read-out: AUC0-42 days median): 47100 ng·h/mL | AUC(0-inf) ([3]; observed 25-hydroxyvitamin D3, 448 μg iv single dose, read-out: AUC0-inf mean): 138000 ng·h/mL | AUC(0-inf) ([3]; observed 25-hydroxyvitamin D3, 448 μg iv single dose, read-out: AUC0-inf median): 124000 ng·h/mL | AUC(0-t) ([3]; observed 25-hydroxyvitamin D3, 448 μg iv single dose, read-out: AUC0-last mean): 43500 ng·h/mL | AUC(0-t) ([3]; observed 25-hydroxyvitamin D3, 448 μg iv single dose, read-out: AUC0-last median): 47100 ng·h/mL | Cmax ([3]; observed 25-hydroxyvitamin D3, 448 μg iv single dose, read-out: Cmax mean (SD)): 134 ng/mL | Cmax ([3]; observed 25-hydroxyvitamin D3, 448 μg iv single dose, read-out: Cmax median): 134 ng/mL | half-life ([3]; observed 25-hydroxyvitamin D3, 448 μg iv single dose, read-out: t1/2 mean (SD) (converted)): 74 days | half-life ([3]; observed 25-hydroxyvitamin D3, 448 μg iv single dose, read-out: t1/2 median (converted)): 70.6 days | Tmax ([3]; observed 25-hydroxyvitamin D3, 448 μg iv single dose, read-out: tmax mean (SD)): 29.4 min | Tmax ([3]; observed 25-hydroxyvitamin D3, 448 μg iv single dose, read-out: tmax median): 15 min | CL mean (SD) [3, 5]: 0.0095 (0.0065) L/ng * h | CL median [3, 5]: 0.0081 L/ng/h | F mean [3, 5]: 1.000 (NA) | Vd mean (SD) [3, 5]: 20.35 (7.42) L/ng | Vd median [3, 5]: 19.550 L/ng | λ2 mean (SD) [3, 5]: 0.0005 (0.0002) h^−1 | λ2 median [3, 5]: 0.0004 h⁻¹

Reference: patent US10350224B2, “Stabilized modified release vitamin D formulation and method of administering same” (OPKO IRELAND GLOBAL HOLDINGS, LTD., priority 2013, dated 2019)
